Reference: US9365540B2, “Benzimidazole derivatives as MCH receptor antagonists” (Takeda Pharmaceutical Company Limited, priority 2012, dated 2016)

Experiments:
[1] = target: T1, human MCH receptor 1 (MCHR1) (Homo sapiens, UniProt Q99705); assay: human MCH receptor 1 (MCHR1) competitive binding assay with [125I]-MCH(4-19); settings: test compound 0.1 μM, human MCHR1-expressing CHO cell membrane fraction, read-out: Binding inhibition rate % (0.1 μM)
T1 construct: expressed in transfected cells; host or cells: CHO cell clone 57 (membrane fraction)
In short: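 Percent binding inhibition by 0.1 μM test compound, corrected for nonspecific binding defined with unlabeled MCH(1-19), is read by scintillation after filtration onto PEI-treated GF/C filters. The reaction runs 1 hr at room temperature with [125I]-MCH(4-19) and human MCHR1-CHO cell membranes in Tris-HCl pH 7.5 buffer containing EDTA and protease inhibitors.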

[2] = target: T2, human MCHR1 (Homo sapiens, UniProt Q99705); assay: MCH receptor 1 antagonistic activity, Ca2+ mobilization assay; type: cell-based; settings: CHO, test compound 0.1 μM; human MCHR1-expressing CHO cells (clone #4); ligand MCH(4-19) 2 nM; read-out: Inhibitory rate % (0.1 μM)
T2 construct: expressed in transfected cells; host or cells: CHO dhfr- cells, clone #4
Description: Measurement of MCH Receptor 1 Antagonistic Activity of Test Compound Using Ca^2+ Mobilization Assay Using an expression vector plasmid introduced with human MCHR1 gene for expression in animal cells, human MCHR1 gene was introduced into CHO cells (CHO dhfr^−) by Lipofectamine LTX (Invitrogen). The cells were cultured in selection MEMα medium [445 mL of MEMα medium without nucleic acid and added with 5 mL of Penicillin-Streptomycin (Invitrogen) and 50 mL of dialyzed fetal bovine serum]. Colony 24 clones grown in the selection medium, which were human MCHR1 gene-expressing CHO cell candidates, were selected. […] In the following test, this human MCHR1-expressing CHO cell (clone #4) was used. An integrated dispensing function fluorometer (CellLux, PerkinElmer) was used for Ca^2+ mobilization assay. […] The medium was removed, and the cells were washed with phosphate buffered saline (PBS). […] The plate was set on a plate reader. […] The inhibition rates (%) of test compounds (0.1 μM) as antagonist activity measured using human MCHR1-expressing CHO cells (clone #4) are shown in the following Table 3.

T1 sequence (Q99705 whole entry): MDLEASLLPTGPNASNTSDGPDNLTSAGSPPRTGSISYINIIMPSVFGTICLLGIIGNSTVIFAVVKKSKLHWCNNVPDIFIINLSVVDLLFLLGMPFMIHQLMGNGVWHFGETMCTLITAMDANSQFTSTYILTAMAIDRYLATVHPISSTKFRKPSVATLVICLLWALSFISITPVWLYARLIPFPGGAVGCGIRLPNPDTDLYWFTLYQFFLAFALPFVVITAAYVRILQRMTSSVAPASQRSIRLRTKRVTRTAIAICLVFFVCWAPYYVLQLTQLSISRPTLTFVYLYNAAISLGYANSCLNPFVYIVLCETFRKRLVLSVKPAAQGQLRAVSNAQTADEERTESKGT
T2 sequence (Q99705 whole entry): as above

Row | SMILES | inhibition at 0.1 µM [1] [%] | inhibition at 0.1 µM [2] [%]
1 | CCCc1nc2ccc(-n3ccc(OCc4ccc(Cl)cc4)cc3=O)cc2n1C [Example 103, 4-((4-Chlorobenzyl)oxy)-1-(1-methyl-2-propyl-1H-benzimidazol-6-yl)pyridin-2(1H)-one] | 78 | 63
2 | CC(=O)c1nc2ccc(-n3ccc(OCc4ccc(Cl)cc4)cc3=O)cc2n1C [Example 104, 1-(2-Acetyl-1-methyl-1H-benzimidazol-6-yl)-4-((4-chlorobenzyl)oxy)pyridin-2(1H)-one] | 60 | 61
3 | Cc1nc2ccc(-n3ccc(OCc4ccc(Cl)cc4)cc3=O)cc2n1C [Example 107, 4-((4-Chlorobenzyl)oxy)-1-(1,2-dimethyl-1H-benzimidazol-6-yl)pyridin-2(1H)-one] | 60 | 101
4 | Cn1c(C2CC2)nc2ccc(-n3ccc(OCc4cccs4)cc3=O)cc21 [Example 124, 1-(2-Cyclopropyl-1-methyl-1H-benzimidazol-6-yl)-4-(2-thienylmethoxy)pyridin-2(1H)-one] | 58 | 80
5 | Cn1c(C2CC2)nc2ccc(-n3ccc(OCc4cccc(Cl)c4)cc3=O)cc21 [Example 127, 4-((3-Chlorobenzyl)oxy)-1-(2-cyclopropyl-1-methyl-1H-benzimidazol-6-yl)pyridin-2(1H)-one] | 80 | 77
6 | Cc1c(C2CC2)nc2ccc(-n3ccc(OCc4cccc(F)c4)cc3=O)cn12 [Example 130, 1-(2-Cyclopropyl-3-methylimidazo[1,2-a]pyridin-6-yl)-4-((3-fluorobenzyl)oxy)pyridin-2(1H)-one] | 79 | 99
7 | Cn1c(C2CC2)nc2ccc(-n3ccc(OCc4ccc(F)s4)cc3=O)cc21 [Example 157, 1-(2-Cyclopropyl-1-methyl-1H-benzimidazol-6-yl)-4-((5-fluorothiophen-2-yl)methoxy)pyridin-2(1H)-one] | 71 | 95
8 | Cn1c(C2CC2)nc2ccc(-n3ccc(OCc4ccc(C(F)(F)F)s4)cc3=O)cc21 [Example 159, 1-(2-Cyclopropyl-1-methyl-1H-benzimidazol-6-yl)-4-((5-(trifluoromethyl)thiophen-2-yl)methoxy)pyridin-2(1H)-one] | 87 | 107
9 | Cc1c(C2CC2)nc2ccc(-n3ccc(COc4ccc(F)cc4)cc3=O)cn12 [Example 170, 1-(2-Cyclopropyl-3-methylimidazo[1,2-a]pyridin-6-yl)-4-((4-fluorophenoxy)methyl)pyridin-2(1H)-one] | 23 | 62
10 | Cc1c(C2CC2)nc2ccc(-n3ccc(NCc4ccc(Cl)s4)cc3=O)cn12 [Example 181, 4-(((5-Chloro-2-thienyl)methyl)amino)-1-(2-cyclopropyl-3-methylimidazo[1,2-a]pyridin-6-yl)pyridin-2(1H)-one] | 57 | 21
11 | Cc1c(C2CC2)nc2ccc(-n3ccc(NCc4ccc(Cl)cc4)cc3=O)cn12 [Example 186, 4-((4-Chlorobenzyl)amino)-1-(2-cyclopropyl-3-methylimidazo[1,2-a]pyridin-6-yl)pyridin-2(1H)-one] | 25 | 74
12 | Cc1c(C2CC2)nc2ccc(-n3ccc(OCc4ccc(Br)cc4)cc3=O)cn12 [Example 192, 4-((4-Bromobenzyl)oxy)-1-(2-cyclopropyl-3-methylimidazo[1,2-a]pyridin-6-yl)pyridin-2(1H)-one] | 85 | 98
13 | Cn1c(C2CC2)nc2ccc(-n3ccc(OCc4ccc(Cl)o4)cc3=O)cc21 [Example 202, 4-((5-Chloro-2-furyl)methoxy)-1-(2-cyclopropyl-1-methyl-1H-benzimidazol-6-yl)pyridin-2(1H)-one] | 67 | 104
14 | Cn1c(C2CC2)nc2ccc(-n3ccc(OCc4cc(Cl)cs4)cc3=O)cc21 [Example 228, 4-((4-Chlorothiophen-2-yl)methoxy)-1-(2-cyclopropyl-1-methyl-1H-benzimidazol-6-yl)pyridin-2(1H)-one] | 89 | 103
15 | CCc1nc2ccc(-n3ccc(OCc4csc(F)c4)cc3=O)cc2n1C [Example 231, 1-(2-Ethyl-1-methyl-1H-benzimidazol-6-yl)-4-((5-fluoro-3-thienyl)methoxy)pyridin-2(1H)-one] | 71 | 95
16 | CCc1nc2ccc(-n3ccc(OCc4ccsc4)cc3=O)cc2n1C [Example 235, 1-(2-Ethyl-1-methyl-1H-benzimidazol-6-yl)-4-(3-thienylmethoxy)pyridin-2(1H)-one] | 69 | 93
17 | CCc1nc2ccc(-n3ccc(OCc4cc(Cl)cs4)cc3=O)cc2n1C [Example 236, 4-((4-Chlorothiophen-2-yl)methoxy)-1-(2-ethyl-1-methyl-1H-benzimidazol-6-yl)pyridin-2(1H)-one] | 76 | 96

Second part, the compound after the results:

Row | inhibition at 0.1 µM [1] [%] | inhibition at 0.1 µM [2] [%] | SMILES
18 | 51 | 96 | Cc1c(C2CC2)nc2ccc(-n3ccc(OCc4cccs4)cc3=O)cn12 [Example 132, 1-(2-Cyclopropyl-3-methylimidazo[1,2-a]pyridin-6-yl)-4-(2-thienylmethoxy)pyridin-2(1H)-one]
19 | 79 | 98 | Cc1c(C2CC2)nc2ccc(-n3ccc(OCc4ccsc4)cc3=O)cn12 [Example 133, 1-(2-Cyclopropyl-3-methylimidazo[1,2-a]pyridin-6-yl)-4-(3-thienylmethoxy)pyridin-2(1H)-one]
20 | 92 | 102 | Cc1c(C2CC2)nc2ccc(-n3ccc(OCc4csc(Cl)c4)cc3=O)cn12 [Example 164, 4-((5-Chlorothiophen-3-yl)methoxy)-1-(2-cyclopropyl-3-methylimidazo[1,2-a]pyridin-6-yl)pyridin-2(1H)-one]
21 | 84 | 103 | Cc1c(C2CC2)nc2ccc(-n3ccc(OCc4cc(Cl)cs4)cc3=O)cn12 [Example 168, 4-((4-Chlorothiophen-2-yl)methoxy)-1-(2-cyclopropyl-3-methylimidazo[1,2-a]pyridin-6-yl)pyridin-2(1H)-one]
22 | 97 | 97 | Cc1c(C2CC2)nc2ccc(-n3ccc(OCc4csc(Br)c4)cc3=O)cn12 [Example 177, 4-((5-Bromo-3-thienyl)methoxy)-1-(2-cyclopropyl-3-methylimidazo[1,2-a]pyridin-6-yl)pyridin-2(1H)-one]
23 | 74 | 69 | Cc1c(C2CC2)nc2ccc(-n3ccc(OCc4ccc(C(F)F)s4)cc3=O)cn12 [Example 178, 1-(2-Cyclopropyl-3-methylimidazo[1,2-a]pyridin-6-yl)-4-((5-(difluoromethyl)-2-thienyl)methoxy)pyridin-2(1H)-one]
24 | 64 | 94 | Cc1c(C2CC2)nc2ccc(-n3ccc(OCc4csc(C(F)(F)F)n4)cc3=O)cn12 [Example 179, 1-(2-Cyclopropyl-3-methylimidazo[1,2-a]pyridin-6-yl)-4-((2-(trifluoromethyl)-1,3-thiazol-4-yl)methoxy)pyridin-2(1H)-one]
25 | 64 | 99 | Cc1c(C2CC2)nc2ccc(-n3ccc(OCc4ccc(C(F)(F)F)o4)cc3=O)cn12 [Example 180, 1-(2-Cyclopropyl-3-methylimidazo[1,2-a]pyridin-6-yl)-4-((5-(trifluoromethyl)-2-furyl)methoxy)pyridin-2(1H)-one]
26 | 91 | 75 | Cc1c(C2CC2)nc2ccc(-n3ccc(OCc4csc(C(F)(F)F)c4)cc3=O)cn12 [Example 183, 1-(2-Cyclopropyl-3-methylimidazo[1,2-a]pyridin-6-yl)-4-((5-(trifluoromethyl)-3-thienyl)methoxy)pyridin-2(1H)-one]
27 | 86 | 100 | Cc1c(C2CC2)nc2ccc(-n3ccc(OCc4csc(Br)n4)cc3=O)cn12 [Example 189, 4-((2-Bromo-1,3-thiazol-4-yl)methoxy)-1-(2-cyclopropyl-3-methylimidazo[1,2-a]pyridin-6-yl)pyridin-2(1H)-one]
28 | 89 | 99 | Cc1c(C2CC2)nc2ccc(-n3ccc(OCc4nc(C(F)(F)F)cs4)cc3=O)cn12 [Example 193, 1-(2-Cyclopropyl-3-methylimidazo[1,2-a]pyridin-6-yl)-4-((4-(trifluoromethyl)-1,3-thiazol-2-yl)methoxy)pyridin-2(1H)-one]
29 | 82 | 100 | Cc1c(C2CC2)nc2ccc(-n3ccc(OCc4nc(Br)cs4)cc3=O)cn12 [Example 194, 4-((4-Bromo-1,3-thiazol-2-yl)methoxy)-1-(2-cyclopropyl-3-methylimidazo[1,2-a]pyridin-6-yl)pyridin-2(1H)-one]
